# According to patent US11168073B2, “3,3-difluoroallylamines or salts thereof and pharmaceutical compositions comprising the same” (YUHAN CORPORATION, priority 2018, dated 2021):
# Where a name gives a salt, the structure may show the parent alone. Read-outs that look alike come from different tables or passages of the source.
# Key:
# Type in all cases: biochemical
# [1] = biological target: T1, recombinant human VAP-1 (Homo sapiens, UniProt Q16853); experiment: Activity evaluation on recombinant human VAP-1 (Amplex Red/HRP-coupled hydrogen peroxide assay, benzylamine substrate); settings: read-out: Inhibitory Activity (IC50, nM) human VAP-1
# T1 construct: purchased R&D systems
# T1 sequence (Q16853 1-763): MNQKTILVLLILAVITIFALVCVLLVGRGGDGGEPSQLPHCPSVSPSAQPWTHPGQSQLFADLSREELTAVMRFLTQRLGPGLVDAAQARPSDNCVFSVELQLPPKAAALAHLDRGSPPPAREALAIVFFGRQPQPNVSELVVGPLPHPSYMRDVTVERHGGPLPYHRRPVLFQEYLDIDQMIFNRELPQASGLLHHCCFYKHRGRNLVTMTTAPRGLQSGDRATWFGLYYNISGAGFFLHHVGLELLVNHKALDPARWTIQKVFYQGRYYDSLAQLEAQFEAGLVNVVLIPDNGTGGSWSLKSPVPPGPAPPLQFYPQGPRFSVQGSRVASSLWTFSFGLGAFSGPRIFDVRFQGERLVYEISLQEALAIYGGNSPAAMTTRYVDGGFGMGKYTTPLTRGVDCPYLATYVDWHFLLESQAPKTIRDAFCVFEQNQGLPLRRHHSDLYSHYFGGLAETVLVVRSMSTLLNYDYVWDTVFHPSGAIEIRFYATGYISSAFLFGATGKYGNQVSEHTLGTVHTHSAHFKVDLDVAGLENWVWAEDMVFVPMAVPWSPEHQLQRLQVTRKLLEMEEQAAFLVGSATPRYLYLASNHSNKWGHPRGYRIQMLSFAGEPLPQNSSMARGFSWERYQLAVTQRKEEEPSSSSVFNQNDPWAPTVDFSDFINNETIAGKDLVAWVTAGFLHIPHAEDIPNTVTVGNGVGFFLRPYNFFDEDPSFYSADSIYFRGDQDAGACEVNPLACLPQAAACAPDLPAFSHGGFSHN
# Procedure, shortened: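 Hydrogen peroxide from benzylamine (1 mM) oxidation by human recombinant VAP-1 detected via HRP-coupled Amplex Red (200 uM) fluorescence, kinetic over 1–2 h. Enzyme and compound preincubated 30 min at 37 °C, pH 7.4 phosphate; 8-point dose response, signal-rate decrease versus DMSO control fitted to four-parameter logistic for IC50.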
# [2] = biological target: T2, recombinant human MAO-A (monoamine oxidase-A) (Homo sapiens, UniProt P21397); experiment: Activity evaluation on recombinant human MAO-A (Amplex Red/HRP-coupled assay, 0.5 mM tyramine substrate); settings: read-out: Inhibitory Activity (IC50, nM) MAO-A
# T2 construct: purchased Sigma-Aldrich
# T2 sequence (P21397 1-527): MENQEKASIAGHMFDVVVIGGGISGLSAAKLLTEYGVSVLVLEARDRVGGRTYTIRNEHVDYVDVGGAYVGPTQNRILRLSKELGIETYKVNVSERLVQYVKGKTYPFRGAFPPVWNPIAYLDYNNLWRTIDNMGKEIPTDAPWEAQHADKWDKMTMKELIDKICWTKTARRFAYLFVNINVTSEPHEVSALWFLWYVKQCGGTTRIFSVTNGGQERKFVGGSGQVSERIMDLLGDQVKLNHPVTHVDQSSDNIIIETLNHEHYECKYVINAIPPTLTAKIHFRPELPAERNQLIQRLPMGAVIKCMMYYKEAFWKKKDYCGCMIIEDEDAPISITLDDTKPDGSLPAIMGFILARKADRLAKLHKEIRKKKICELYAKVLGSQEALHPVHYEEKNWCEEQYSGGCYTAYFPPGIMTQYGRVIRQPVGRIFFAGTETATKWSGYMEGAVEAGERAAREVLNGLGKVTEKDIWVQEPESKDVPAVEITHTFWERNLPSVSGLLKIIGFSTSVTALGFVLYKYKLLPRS
# Procedure, shortened: (§1)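 8-pt 1:3 dilution series, final DMSO <1%; 30 min 37 °C preincubation w/ enzyme, 50 mM Na phosphate pH 7.4; + 200 uM Amplex Red, 1 U/mL HRP, substrate (MAO-A tyramine 0.5 mM; MAO-B benzylamine 1 mM; DAO putrescine 1 mM); fluor. rate 544/590 nm, 1-2 h; 4-param IC50.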
# [3] = biological target: T3, recombinant human MAO-B (monoamine oxidase-B) (Homo sapiens, UniProt P27338); experiment: Activity evaluation on recombinant human MAO-B (Amplex Red/HRP-coupled assay, 1 mM benzylamine substrate); settings: read-out: Inhibitory Activity (IC50, nM) MAO-B
# T3 construct: purchased Sigma-Aldrich
# T3 sequence (P27338 1-520): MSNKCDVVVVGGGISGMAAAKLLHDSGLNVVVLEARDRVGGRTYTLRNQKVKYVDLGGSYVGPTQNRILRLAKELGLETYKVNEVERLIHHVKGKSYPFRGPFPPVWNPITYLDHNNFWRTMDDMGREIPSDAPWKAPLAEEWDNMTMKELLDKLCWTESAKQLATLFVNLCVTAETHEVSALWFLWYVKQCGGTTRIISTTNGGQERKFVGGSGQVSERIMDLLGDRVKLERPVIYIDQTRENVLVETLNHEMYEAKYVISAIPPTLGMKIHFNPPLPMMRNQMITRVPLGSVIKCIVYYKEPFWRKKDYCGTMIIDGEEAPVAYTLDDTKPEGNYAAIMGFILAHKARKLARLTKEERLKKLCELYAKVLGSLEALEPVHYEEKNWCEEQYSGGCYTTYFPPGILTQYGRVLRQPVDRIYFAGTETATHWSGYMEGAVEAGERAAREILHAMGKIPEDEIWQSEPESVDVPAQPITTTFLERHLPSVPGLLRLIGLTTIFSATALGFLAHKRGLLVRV
# Procedure, shortened: as §1
# [4] = biological target: T4, recombinant human DAO (diamine oxidase) (Homo sapiens, UniProt P19801); experiment: Activity evaluation on recombinant human DAO (Amplex Red/HRP-coupled assay, 1 mM putrescine substrate); settings: read-out: Inhibitory Activity (IC50, nM) DAO
# T4 construct: purchased R&D systems
# T4 sequence (P19801 20-751): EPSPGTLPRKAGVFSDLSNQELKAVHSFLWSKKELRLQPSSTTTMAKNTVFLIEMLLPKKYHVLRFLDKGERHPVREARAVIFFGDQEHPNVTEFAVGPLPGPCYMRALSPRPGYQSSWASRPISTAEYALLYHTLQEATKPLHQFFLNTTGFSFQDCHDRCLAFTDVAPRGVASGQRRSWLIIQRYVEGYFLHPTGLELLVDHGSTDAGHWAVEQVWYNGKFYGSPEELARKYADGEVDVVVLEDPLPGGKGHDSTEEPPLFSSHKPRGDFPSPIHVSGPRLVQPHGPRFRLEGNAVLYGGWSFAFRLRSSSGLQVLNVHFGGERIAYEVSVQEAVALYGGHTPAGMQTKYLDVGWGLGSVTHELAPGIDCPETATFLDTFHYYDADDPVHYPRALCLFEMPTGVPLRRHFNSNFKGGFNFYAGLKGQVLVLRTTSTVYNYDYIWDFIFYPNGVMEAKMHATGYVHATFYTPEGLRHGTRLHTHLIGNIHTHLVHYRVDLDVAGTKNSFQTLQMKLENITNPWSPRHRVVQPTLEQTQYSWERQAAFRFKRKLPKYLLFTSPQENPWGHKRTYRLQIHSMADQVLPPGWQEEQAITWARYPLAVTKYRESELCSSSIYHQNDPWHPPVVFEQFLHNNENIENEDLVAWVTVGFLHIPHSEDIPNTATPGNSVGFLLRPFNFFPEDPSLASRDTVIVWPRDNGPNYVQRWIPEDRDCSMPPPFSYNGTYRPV
# Procedure, shortened: as §1
# [5] = recombinant human VAP-1, benzylamine substrate
# [6] = recombinant human VAP-1, 30 min preincubation at 37° C., 1 mM benzylamine
Compound,"IC50 [1, 5] [nM]",IC50 ([2]; 0.5 mM tyramine substrate) [nM],IC50 ([3]; 1 mM benzylamine substrate) [nM],IC50 ([4]; 1 mM putrescine substrate) [nM],"IC50 [1, 6] [nM]",IC50 ([2]; 0.5 mM tyramine) [nM],IC50 ([3]; 1 mM benzylamine) [nM],IC50 ([4]; 1 mM putrescine) [nM]
"CC(C)n1cc(-c2ccc(Cn3cnn(CC(CN)=C(F)F)c3=O)s2)cn1 [Example 184, 2-[2-(aminomethyl)-3,3-difluoro-allyl]-4-[[5-(1-isopropylpyrazol-4-yl)-2-thienyl]methyl]-1,2,4-triazol-3-one Trifluoroacetate]",2.6,> 100000,26000,72000,–,–,–,–
"CS(=O)(=O)c1ccc(-c2ccnc(-n3cnn(CC(CN)=C(F)F)c3=O)c2)cc1 [Example 54, 2-[2-(aminomethyl)-3,3-difluoro-allyl]-4-[4-(4-methylsulfonylphenyl)-2-pyridyl]-1,2,4-triazol-3-one Trifluoroacetate]",–,–,–,–,4.9,> 100000,> 100000,480
"Cc1cc(C#Cc2cnn(C)c2)cnc1-n1cnn(CC(CN)=C(F)F)c1=O [Example 240, 2-[2-(aminomethyl)-3,3-difluoro-allyl]-4-[3-methyl-5-[2-(1-methylpyrazol-4-yl)ethynyl]-2-pyridyl]-1,2,4-triazol-3-one trifluoroacetate]",1,> 100000,15000,30000,–,–,–,–
"NCC(Cn1ncn(-c2ccc(-c3ccc4c(c3)OCO4)nc2)c1=O)=C(F)F [Example 42, 2-[2-(aminomethyl)-3,3-difluoro-allyl]-4-[6-(1,3-benzodioxol-5-yl)-3-pyridyl]-1,2,4-triazol-3-one Trifluoroacetate]",–,–,–,–,0.3,> 100000,34,250
"Cc1cc(C#Cc2cnc3c(c2)OCC(=O)N3)cnc1-n1cnn(CC(CN)=C(F)F)c1=O [Example 248, 7-[2-[6-[1-[2-(aminomethyl)-3,3-difluoro-allyl]-5-oxo-1,2,4-triazol-4-yl]-5-methyl-3-pyridyl]ethynyl]-4H-pyrido[3,2-b][1,4]oxazin-3-one trifluoroacetate]",2.7,> 100000,14000,> 100000,–,–,–,–
"NCC(Cn1ncn(-c2cccc(-c3ccc(C(F)(F)F)nc3)c2)c1=O)=C(F)F [Example 19, 2-[2-(aminomethyl)-3,3-difluoro-allyl]-4-[3-[6-(trifluoromethyl)-3-pyridyl]phenyl]-1,2,4-triazol-3-one Trifluoroacetate]",–,–,–,–,5.3,> 100000,> 10000,240
"Cc1cc(-c2cnc(-n3cnn(CC(CN)=C(F)F)c3=O)c(F)c2)cc2c1NC(=O)CC2 [Example 86, 6-[6-[1-[2-(aminomethyl)-3,3-difluoro-allyl]-5-oxo-1,2,4-triazol-4-yl]-5-fluoro-3-pyridyl]-8-methyl-3,4-dihydro-1H-quinolin-2-one Trifluoroacetate]",–,–,–,–,0.1,> 100000,640,33
"Cn1cc(-c2ccc(Cn3cnn(CC(CN)=C(F)F)c3=O)s2)ccc1=O [Example 121, 5-[5-[[1-[2-(aminomethyl)-3,3-difluoro-allyl]-5-oxo-1,2,4-triazol-4-yl]methyl]-2-thienyl]-1-methyl-pyridin-2-one Trifluoroacetate]",–,–,–,–,0.9,> 100000,40000,> 10000
"Cc1cc(Br)ccc1-n1cnn(CC(CN)=C(F)F)c1=O [Example 6, 2-[2-(aminomethyl)-3,3-difluoro-allyl]-4-(4-bromo-2-methyl-phenyl)-1,2,4-triazol-3-one trifluoroacetate]",–,–,–,–,9.4,> 100000,> 100000,> 100000
"Cc1cc(-c2ccc3c(c2)OCO3)sc1Cn1cnn(CC(CN)=C(F)F)c1=O [Example 158, 2-[2-(aminomethyl)-3,3-difluoro-allyl]-4-[[5-(1,3-benzodioxol-5-yl)-3-methyl-2-thienyl]methyl]-1,2,4-triazol-3-one Trifluoroacetate]",–,–,–,–,7,> 100000,3800,> 100000
"CN(C)c1ccc(-c2ccc(Cn3cnn(CC(CN)=C(F)F)c3=O)s2)cn1 [Example 112, 2-[2-(aminomethyl)-3,3-difluoro-allyl]-4-[[5-[6-(dimethylamino)-3-pyridyl]-2-thienyl]methyl]-1,2,4-triazol-3-one Trifluoroacetate]",–,–,–,–,0.2,> 100000,26000,> 100000
"NCC(Cn1ncn(Cc2ccc(C#Cc3cnc4c(c3)OCCN4)s2)c1=O)=C(F)F [Example 167, 2-[2-(aminomethyl)-3,3-difluoro-allyl]-4-[[5-[2-(3,4-dihydro-2H-pyrido[3,2-b][1,4]oxazin-7-yl)ethynyl]-2-thienyl]methyl]-1,2,4-triazol-3-one Ditrifluoroacetate]",–,–,–,–,2.1,> 100000,41000,> 10000
